Measured values from patent publication US20140018435A1, “Transdermal Delivery of Therapeutic Agents Using Poly (Amidoamine) Dendrimers” (UNIVERSITY OF ILLINOIS CHICAGO, priority 2012, published 2014).
Like-named read-outs stand apart in the source and are kept apart here.

How the values were obtained:
[1] = tested on: breast cancer cell growth; conditions: tissue culture; cited from earlier work
[2] = gel, cited from earlier work
[3] = tested on: ER positive invasive breast cancer; conditions: gel, 0.5 or 1 mg per breast per day; cited from earlier work
[4] = 24 hours dendrimer pre-treatment, then 5-FU in isopropyl myristate for 48 hrs; cited from earlier work
[5] = after 24 hours of co-treatment; cited from earlier work
[6] = at pH 74; cited from earlier work
[7] = Franz diffusion cell skin permeation/retention, porcine skin; type: in vitro ADME; conditions: detection limit 9 ng/mL
[8] = taken orally for five years; cited from earlier work

Compound: 4-hydroxytamoxifen [4-OHT]
- potency in suppressing breast cancer cell growth relative to TAM [1]: two-log greater potency
- plasma level as fraction of those seen after 20 mg of oral TAM ([2]; 0.5 mg per breast per day): approximately 1/30
- plasma levels of 4-OHT ([2]; 0.5 mg per breast per day): 0.05 ng/mL
- plasma level as fraction of those seen after 20 mg of oral TAM ([2]; 1 mg per breast per day): 1/12
- plasma levels of 4-OHT ([2]; 1 mg per breast per day): 0.13 ng/mL
- reduction of Ki-67 labeling [3]: reduced the Ki-67 labeling to a similar degree as oral TAM

Compound: O=c1[nH]cc(F)c(=O)[nH]1 [5-FU, 5-fluorouracil]
- fold enhancement in permeability coefficient [4]: Up to 4 fold

Compound: O=C(O)c1cc(-c2ccc(F)cc2F)ccc1O [Diflunisal]
- increase of accumulative permeated amount by complexing with PAMAM dendrimers, as compared to the free drug [5]: 3.2 times

Compound: CC(C(=O)O)c1cccc(C(=O)c2ccccc2)c1 (stereo not drawn) [Ketoprofen]
- increase of accumulative permeated amount by complexing with PAMAM dendrimers, as compared to the free drug [5]: 3.4 times

Compound: CCCCCCCC/C=C\CCCCCCCC(=O)O [OA, oleic acid]
- reported partition coefficient [6]: 7.3

Compound: CC/C(=C(\c1ccc(O)cc1)c1ccc(OCCNC)cc1)c1ccccc1 [endoxifen]
- endoxifen collected from the receiver solution (RP-HPLC) [7]: < 9 ng/mL

Compound: CC/C(=C(\c1ccccc1)c1ccc(OCCN(C)C)cc1)c1ccccc1 [tamoxifen]
- reduction of breast cancer risk [8]: about 50%
